Columns and labels:
[1] = Ability to catalyze Fenton reaction, luminol reaction observed by eye; conditions: reaction product solution added to 100 ml luminol solution (1 g/L luminol, 4 g/L sodium hydroxide, 0.3% hydrogen peroxide)
Text: With respect to the reaction products of the samples, which were confirmed to have iron reducing effects in Example 1, and iron, the fact that the reaction products have abilities to catalyze the Fenton reaction was examined by a luminol reaction.
It should be noted that the luminol reaction means a luminescence reaction caused by oxidizing luminol by generation of hydroxyl radicals.
Small amounts of the aqueous solutions containing the reaction products prepared in Example 1 were each added to 100 ml of a luminol solution (1 g/L luminol, 4 g/L sodium hydroxide, 0.3% hydrogen peroxide), and the presence or absence of luminescence was observed.

[2] = Luminol reaction, amount of luminescence (hydroxyl radicals generated) measured with AB-2270 Luminescencer Octa
Method: In the step of preparing the reaction products of the samples and iron, the ability to catalyze the Fenton reaction was examined with different mixing ratios of the samples to iron.
The above-mentioned samples were each mixed with iron (III) chloride (1 mM FeCl3) at different mixing ratios as shown in FIG. 2 to prepare reaction products in the same manner as in Example 1.
(§1) Then, for each of the aqueous solutions containing the reaction products, the amount of luminescence (amount of hydroxyl radicals generated) provided by the luminol reaction was measured using the AB-2270 Luminescencer Octa to determine the ability of the reaction products to catalyze the Fenton reaction. […]
The above-mentioned samples were added to different concentrations of iron (III) chloride (0.02, 0.1, 0.2, 1, 5, and 10 mM) at the optimum mixing ratios determined in Example 3 (ascorbic acid: 0.5 mM, squeezed grape juice: 40 mg/L in terms of total polyphenols, chaff vinegar stock solution: 50 g/L, with respect to 1 mM FeCl3) to prepare reaction products in the same manner as in Example 1.
as §1

Escherichia coli = conditions: 10 mM hydrogen peroxide, 1.0x10^6 cfu/mL, 10 minutes of treatment, TTC medium plate

| SMILES | presence or absence of luminescence [1] | ability to catalyze the Fenton reaction ([2]; reaction products with iron at optimum mixing ratios and concentrations (Example 5)) | optimum mixing concentration for ability to catalyze the Fenton reaction ([2]; with respect to 1 mM FeCl3) | sterilization effect (survival of Escherichia coli) (Escherichia coli) |
| --- | --- | --- | --- | --- |
| O=C1O[C@H]([C@@H](O)CO)C(O)=C1O [Sample 1, ascorbic acid] | blue fluorescence was observed | very high | about 0.5 mM |  |
| OO [hydrogen peroxide] |  |  |  | a large amount of Escherichia coli survived |
